“And” between values parts separate entries of the source, which are not always exact repeats. Identical values can stand only once. Blank lines part the entries; values can stand above or below the compound they belong to.
Legend:
[1] = Plasma PK of enzalutamide and N-desmethyl enzalutamide in men with mCRPC
[2] = Urine PK of digoxin in men with mCRPC; format: in vivo, human; details: for CL renal: male, human, oral, CLR; for CL renal / Aelast%, GLSM / Aelast%, Mean ± SD / Aelast%, Median (range) / Aelast, Median (range): urine; for Aelast, Mean ± SD: urine up to 24 h
P-gp [3] = test: Effect of enzalutamide on PK of digoxin; format: in vivo, human
Safety and tolerability = format: in vivo, human; details: for TEAEs considered related to the drug: single dose in cocktail, days 1 and 64
[4] = Plasma PK of digoxin and rosuvastatin; details: for AUC(0-inf) / AUC(0-t) / Cmax / Vd/F / half-life: male, human, in vivo; for AUC(0-inf): AUCinf; for AUC(0-t): AUClast; for Vd/F: Vz/F; for half-life: t½
BCRP [5] = test: Effect of enzalutamide on PK of rosuvastatin; format: in vivo, human
CYP3A4 [6] = details: human hepatocytes; ref data on file; cited from earlier work
CYP2C9 = details: previous clinical DDI studies, cited from earlier work
CYP2C19 = details: previous clinical DDI studies, cited from earlier work
CYP3A4 [7] = details: previous clinical DDI studies, cited from earlier work
clinical = details: male, human, plasma
P-gp [8] = details: co-administration with rifampin; cited from earlier work
BCRP [9] = details: co-administered with rifampin; cited from earlier work
[10] = Enzalutamide + cocktail (day 64)
[11] = digoxin co-administered with enzalutamide versus taken alone
[12] = digoxin plasma, day 64 vs day 1
[13] = GLSM, plasma, Enzalutamide + cocktail (day 64)
[14] = Mean ± SD, plasma, Cocktail (day 1)
[15] = Median (range), plasma, Cocktail (day 1)
[16] = Mean ± SD, plasma, Enzalutamide + cocktail (day 64)
[17] = Median (range), plasma, Enzalutamide + cocktail (day 64)
[18] = plasma, Enzalutamide + cocktail (day 64)
[19] = following enzalutamide, 2 patients
[20] = rosuvastatin co-administered with enzalutamide versus taken alone
[21] = rosuvastatin plasma, day 64 vs day 1

SMILES: CC1(C)C(=O)N(c2ccc(C#N)c(C(F)(F)F)c2)C(=S)N1c1ccc(C(N)=O)c(F)c1 [N‐desmethyl enzalutamide]
Mean Ctrough ([1]; day 35): 9100 ng/mL
AUCtau, Mean ± SD ([1]; day 64): 259000 ± 37900 ng·h/mL
AUCtau, Median (range) ([1]; day 64): 251 (189–327) h·µg/ml
Cmax, Median (range) ([1]; day 64): 12.1 (8.9–15.3) µg/ml
Ctrough, Mean ± SD ([1]; day 64): 11600 ng/mL and 11600 ± 1900 ng/mL
Ctrough, Median (range) ([1]; day 64): 11.7 (7.7–15.0) µg/ml
Cmax, Mean ± SD ([1]; day 64, enzalutamide 160 mg oral once daily from day 8): 12300 ± 1700 ng/mL
Mean Ctrough ([1]; day 68): 11900 ng/mL
Mean Ctrough ([1]; day 71): 12100 ng/mL

CL renal ([2]; Mean ± SD, Cocktail (day 1)): 105 mL/min
CL renal ([2]; Mean ± SD, Enzalutamide + cocktail (day 64)): 81.7 mL/min
CL renal ([2]; Median (range), Cocktail (day 1)): 100 mL/min
CL renal ([2]; Median (range), Enzalutamide + cocktail (day 64)): 78.3 mL/min
Aelast, Mean ± SD ([2]; Cocktail (day 1)): 0.05 ± 0.01 mg
Aelast, Mean ± SD [2, 10]: 0.05 ± 0.01 mg
Aelast%, GLSM ([2]; Cocktail (day 1)): 19.4%
Aelast%, Mean ± SD ([2]; Cocktail (day 1)): 20.1 ± 5.1%
Aelast%, Median (range) ([2]; Cocktail (day 1)): 21.3 (9.2–31.5) %
Aelast, Median (range) ([2]; Cocktail (day 1)): 0.05 (0.02–0.08) mg
Aelast%, GLSM [2, 10]: 17.3%
Aelast%, Mean ± SD [2, 10]: 18.2 ± 5.4%
Aelast%, Median (range) [2, 10]: 17.9 (6.6–26.5) %
Aelast, Median (range) [2, 10]: 0.04 (0.02–0.07) mg
increase in AUCinf (GLSM ratio) (P-gp [3]; [11]): 33%
increase in AUClast (GLSM ratio) (P-gp [3]; [11]): 29%
increase in Cmax (GLSM ratio) (P-gp [3]; [11]): 17%
AUCinf, GLSM ratio (95% CI) (P-gp [3]; [12]): 133.5 (125.3–142.2)
AUClast, GLSM ratio (95% CI) (P-gp [3]; [12]): 129.1 (121.0–137.7)
Cmax, GLSM ratio (95% CI) (P-gp [3]; digoxin plasma, enzalutamide + cocktail (day 64) vs cocktail (day 1)): 117.0 (105.8–129.3)
decrease in Aelast% (P-gp [3]; digoxin urine, co-administered with enzalutamide): 10%
Aelast%, GLSM ratio (95% CI) (P-gp [3]; digoxin urine, day 64 vs day 1): 89.6 (79.1–101.6)
decrease in CLR (P-gp [3]; digoxin, co-administered with enzalutamide): 22%
digoxin plasma concentrations, all patients ([4]; cocktail day 1, 0.5–168 h postdose, above LLOQ): > 10 pg/mL
AUC(0-inf) ([4]; GLSM, plasma, Cocktail (day 1)): 24.1 ng·h/mL
AUC(0-inf) [4, 13]: 32.1 ng·h/mL
AUC(0-inf) [4, 14]: 24.6 ng·h/mL
AUC(0-inf) [4, 15]: 25.1 ng·h/mL
AUC(0-t) ([4]; GLSM, plasma, Cocktail (day 1)): 21.7 ng·h/mL
AUC(0-t) [4, 13]: 28 ng·h/mL
AUC(0-t) [4, 14]: 22.1 ng·h/mL
AUC(0-t) [4, 16]: 28.7 ng·h/mL
AUC(0-t) [4, 15]: 22.7 ng·h/mL
AUC(0-t) [4, 17]: 27.1 ng·h/mL
Cmax [4, 15]: 1.47 ng/mL
Cmax [4, 17]: 1.62 ng/mL
Vd/F [4, 14]: 785 ± 138 L
Vd/F [4, 16]: 710 ± 114 L
Vd/F [4, 15]: 786 L
Vd/F [4, 17]: 727 L
half-life [4, 14]: 52.3 ± 8.2 h
half-life [4, 16]: 63.5 ± 9.5 h
half-life [4, 15]: 50.5 h
CL/F, Mean ± SD ([4]; plasma, Cocktail (day 1)): 10.6 ± 2.3 L/h
CL/F, Median (range) ([4]; plasma, Cocktail (day 1)): 9.9 (7.4–16.3) L/h
tmax, Median (range) ([4]; plasma, Cocktail (day 1)): 1.50 (0.50–3.00) h
CL/F, Mean ± SD [4, 18]: 7.9 ± 1.7 L/h
CL/F, Median (range) [4, 18]: 7.8 (4.6–11.6) L/h
tmax, Median (range) [4, 18]: 1.00 (0.50–2.50) h
Cmax, Mean ± SD ([4]; plasma, Enzalutamide + cocktail (day 64), enzalutamide 160 mg once daily): 1.69 ± 0.384 ng/mL
SMILES: C[C@H]1O[C@@H](O[C@H]2[C@@H](O)C[C@H](O[C@H]3[C@@H](O)C[C@H](O[C@H]4CC[C@@]5(C)[C@H](CC[C@@H]6[C@@H]5C[C@@H](O)[C@]5(C)[C@@H](C7=CC(=O)OC7)CC[C@]65O)C4)O[C@@H]3C)O[C@@H]2C)C[C@H](O)[C@@H]1O [digoxin]
TEAEs considered related to the drug (Safety and tolerability): no TEAEs were considered to be related

SMILES: CNC(=O)c1ccc(N2C(=S)N(c3ccc(C#N)c(C(F)(F)F)c3)C(=O)C2(C)C)cc1F [enzalutamide]
effect of enzalutamide on P-gp inhibition (class) (P-gp [3]; GLSM ratios of digoxin less than two-fold, enzalutamide 160 mg once daily): mild
effect of enzalutamide on the PK of rosuvastatin (class) (BCRP [5]; 90% CI for Cmax and AUCinf GLSM ratios within 80–125%): no effect
tolerability (Safety and tolerability; enzalutamide alone and in combination with digoxin and rosuvastatin): well tolerated
patients with decreased white blood cell count (TEAE) (Safety and tolerability; [19]): 8.3%
patients with dizziness (TEAE) (Safety and tolerability; [19]): 8.3%
patients with urinary tract infection (TEAE) (Safety and tolerability; [19]): 8.3%
patients with TEAEs considered potentially related to enzalutamide (Safety and tolerability; one eosinophilia, two decreased white blood cell count, three patients): 12.5%
deaths (Safety and tolerability; whole study): no deaths
serious TEAEs (Safety and tolerability; whole study): No serious TEAEs were reported
severity of all TEAEs (Safety and tolerability; whole study): mild
CYP3A4 mRNA induction, % of positive control (CYP3A4 [6]): 95.9%
increase of CYP3A4 enzyme activity (CYP3A4 [6]): up to 3.88 fold
increase of CYP3A4 mRNA levels (CYP3A4 [6]): ≤ 6.90 fold
inducer class (CYP2C9; CYP2C9): moderate inducer
reduction of exposure of probe substrate (CYP2C9; CYP2C9 probe substrate): 56%
inducer class (CYP2C19; CYP2C19): moderate inducer
reduction of exposure of probe substrate (CYP2C19; CYP2C19 probe substrate): 70%
inducer class (CYP3A4 [7]; CYP3A4): strong inducer
reduction of exposure of probe substrate (CYP3A4 [7]; CYP3A4 probe substrate): 86%
AUC (clinical; oral): 333000 ± 57800 ng·h/mL
Cmax (clinical; oral): 17200 ng/mL
Cmax (clinical; po, 160 mg): 17100 ± 2800 ng/mL
Mean Ctrough ([1]; day 35): 14100 ng/mL
AUCtau, Median (range) ([1]; day 64): 344 (210–435) h·µg/ml
Ctrough, Mean ± SD ([1]; day 64): 13900 ng/mL
Ctrough, Median (range) ([1]; day 64): 14.1 (8.3–19.4) µg/ml
Ctrough, Mean ± SD ([1]; day 64, listed as Enzalutamide): 13900 ± 2900 ng/mL
Mean Ctrough ([1]; day 68): 14000 ng/mL
Mean Ctrough ([1]; day 71): 14000 ng/mL

SMILES: CO[C@H]1/C=C/O[C@@]2(C)Oc3c(C)c(O)c4c(O)c(c(/C=N/N5CCN(C)CC5)c(O)c4c3C2=O)NC(=O)/C(C)=C\C=C\[C@H](C)[C@H](O)[C@@H](C)[C@@H](O)[C@@H](C)[C@H](OC(C)=O)[C@@H]1C [rifampin]
decrease of AUC of digoxin (P-gp [8]): 30%
decrease of Cmax of digoxin (P-gp [8]): 58%
decrease in Cmax of rosuvastatin (BCRP [9]): 30%

increase in Cmax (GLSM ratio) (BCRP [5]; [20]): 6%
reduction in AUClast (GLSM ratio) (BCRP [5]; [20]): 14%
AUCinf, GLSM ratio (95% CI) (BCRP [5]; [21]): 89.3 (80.0–99.8)
AUClast, GLSM ratio (95% CI) (BCRP [5]; [21]): 86.1 (77.5–95.7)
Cmax, GLSM ratio (95% CI) (BCRP [5]; rosuvastatin plasma, enzalutamide + cocktail (day 64) vs cocktail (day 1)): 106.3 (94.7–119.3)
AUC(0-inf) ([4]; GLSM, plasma, Cocktail (day 1)): 62.7 ng·h/mL
AUC(0-inf) [4, 13]: 56 ng·h/mL
AUC(0-inf) [4, 14]: 69.5 ng·h/mL
AUC(0-inf) [4, 16]: 59.7 ng·h/mL
AUC(0-inf) [4, 15]: 68.6 ng·h/mL
AUC(0-inf) [4, 17]: 55.5 ng·h/mL
AUC(0-t) ([4]; GLSM, plasma, Cocktail (day 1)): 56.7 ng·h/mL
AUC(0-t) [4, 13]: 48.8 ng·h/mL
AUC(0-t) [4, 14]: 61.8 ng·h/mL
AUC(0-t) [4, 16]: 52.8 ng·h/mL
AUC(0-t) [4, 15]: 56.1 ng·h/mL
AUC(0-t) [4, 17]: 48.4 ng·h/mL
Cmax ([4]; GLSM, plasma, Cocktail (day 1)): 4.3 ng/mL
Cmax [4, 15]: 4.71 ng/mL
Cmax [4, 17]: 4.49 ng/mL
Vd/F [4, 14]: 5400 ± 3950 L
Vd/F [4, 16]: 5420 ± 3510 L
Vd/F [4, 15]: 4310 L
Vd/F [4, 17]: 3490 L
half-life [4, 14]: 22.5 ± 11.4 h
CL/F, Mean ± SD ([4]; plasma, Cocktail (day 1)): 163 ± 68.5 L/h
CL/F, Median (range) ([4]; plasma, Cocktail (day 1)): 146 (94.5–366) L/h
tmax, Median (range) ([4]; plasma, Cocktail (day 1)): 4.0 (1.0–6.0) h
CL/F, Mean ± SD [4, 18]: 186 ± 62.4 L/h
CL/F, Median (range) [4, 18]: 180 (91.6–314) L/h
tmax, Median (range) [4, 18]: 3.0 (0.5–6.0) h
SMILES: CC(C)c1nc(N(C)S(C)(=O)=O)nc(-c2ccc(F)cc2)c1/C=C/[C@@H](O)C[C@@H](O)CC(=O)O [rosuvastatin]
TEAEs considered related to the drug (Safety and tolerability): no TEAEs were considered to be related

— publication PMC9099123 (Clinical and Translational Science, 2022)
